What was measured:
[1] = tested on: heat shock protein of 70 kDa; experiment: Induction of heat shock protein of 70 kDa in HL-60 cells (SDS-PAGE and blotting); assay type: cell-based, human; set-up: key to Induction of Heat Shock Proteins: +++: “+” indicates degree of intensity of induction and the more the numbers of “+”, the more the intensity of induction; ++: “+” indicates degree of intensity of induction and the more the numbers of “+”, the more the intensity of induction; “+” indicates degree of intensity of induction and the more the numbers of “+”, the more the intensity of induction; “±” means the induction was slight; “−” means that no induction was noted; conditions: for Induction of Heat Shock Proteins: HL-60 cells, eight hours
Experimental: (1) An RPMI 1640 medium (5 ml) containing 10% of fetal bovine serum which contained 2×10^5 cells/ml of human promyelocytic leukemia cells HL-60 (ATCC CCL-240) was placed in each well of a six-well plate, incubated at 37° C. for 24 hours in the presence of 5% of CO2, then the cyclopentenone described in the referential example L was added thereto to make its final concentration 0, 10, 20, 30, 40, 50, or 100 μM and the incubation was further continued for eight hours more.
After completion of the incubation, cell numbers were counted and the cells were recovered by centrifugation and washed with phosphate-buffered saline (PBS) to prepare cyclopentenone-treated cells. In the meanwhile, cells which were heated at 45° C. for ten minutes followed by subjecting to the same incubation were prepared as well.
The cells treated as such were subjected to an SDS-polyacrylamid gel electrophoresis (SDS-PAGE) by a method mentioned in “Molecular Cloning” [Cold Spring Harbor Laboratory Press, (1989)]. The treated cells were suspended in an SDS-PAGE sample buffer to make the concentration 2.5×10^6 cells/ml, the resulting cell suspension was treated at 100° C. for ten minutes and each 5 μl thereof was applied to two sheets of SDS-PAGE gels (5% stacking gel; 10% separation gel) to conduct anelectrophoresis. One of the gels was Coomassie stained while another gel was subjected to a blotting to a polyvinylidene difluoride transfer membrane (Immobilon™, manufactured by Millipore, catalog no. IPVH000-10). The membrane was subjected to a blocking at 4° C. for one night with Block Ace (manufactured by Dainippon Pharmaceutical; catalog no. UK-B25).
The blocked membrane was made to react with monoclonal antibody HSP 72/73 (Ab-1) (manufactured by Oncogene Research Products, catalog no. HSP01) which would specifically react with heat-induced heat shock protein of 70 kDa and washed with TBS containing 0.05% of Tween 20 followed by further washing with TBS. After that, it was made to react with peroxidase-compounded secondary antibody HRP-Rabbit Anti-Mouse IgG (H+L) (manufactured by Zymed Laboratories, catalog no. 61-6520) and washed by the same manner as in the above operation. The membranes which were treated with primary and secondary antibodies as such were made to react with Renaissance™ (a chemiluminor reagent manufactured by Dupont NEN, catalog no. NEL-100) and photosensitized with an X-ray film to confirm the induction of heat shock protein of 70 kDa.
The result was that, by addition of cyclopentenone (20 to 30 μM), induction of heat shock protein of 70 kDa which is almost same as heat-treated at 45° C. for 10 minutes was confirmed. In Table 1, “+” indicates degree of intensity of induction and the more the numbers of “+”, the more the intensity of induction. Incidentally, “−” means that no induction was noted and “±” means the induction was slight.

NIH3T3/E7-2 = experiment: Colony formation of HPV16 type E7-transformed cell strain NIH3T3/E7-2; assay type: cell-based; conditions: 5 μM
Experimental: Each incubation was conducted in three runs.

CEM-SS cells = experiment: Survival rate of human T cells, CEM-SS; assay type: cell-based; conditions: 0.5-5 m M, three days
Ad5 dlX [an adenovirus] [2] = experiment: Adenovirus hexon protein in HeLa cells treated with cyclopentenone before infection; assay type: cell-based; conditions: 10 μM or higher, six hours before infection, m.o.i. 50, 20 hours
Experimental: After that, the cells were washed with the DMEM containing 5% of fetal bovine serum, then the DMEM containing 5% of fetal bovine serum which contained Ad5 dlX [an adenovirus; Saito, etal.; Journal ofVirology, volume 54, pages 711-719 (1985)] was added to the cells so that the cells were infected therewith and incubation was conducted for 20 hours. […] The medium was discarded, 1 ml of 10% trichloroacetic acid was added to each of the wells and the cells were recovered by a scraper.
Then SDS-PAGE and blotting of the treated cells obtained hereinabove were conducted by the method of Example 1 to detect the expression of hexon proteins of the adenovirus. Incidentally, anti-adenovirus hexon antibody (AB 1056; manufactured by Chemicon International Inc.) was used as the primary antibody.

H9 cells = experiment: Survival rate of human T cells, H9; assay type: cell-based; conditions: three days
NIH3T3 cells = experiment: Colony formation of NIH3T3 cells; conditions: 5 μM, nine days, NIH3T3, three runs
Ad5 dlX [an adenovirus] [3] = experiment: Amount of viral DNA in HeLa cells treated before infection with adenovirus; assay type: cell-based; conditions: 5 μM or more
Experimental: (3) Viral DNA was extracted according to a method mentioned in “Protocols for Experiments of Virus” (pages 24-25; published by Medical View) from the HeLa cells which were treated with the cyclopentenone and infected by adenovirus followed by incubation by the same manner as in Example 2-(2).
Thus, cells infected by virus were washed with a saline solution buffered by phosphoric acid, suspended in 1 ml of aqueous solution of 0.6% sodium laurylsulfate (SDS) and 10 mM EDTA and 3.0 ml of 5M aqueous solution of sodium chloride was added thereto. The mixture was allowed to stand at 0° C. for one hour and centrifuged and 3 ml of ethanol was added to the resulting supernatant liquid followed by mixing. The precipitate obtained by centrifugal separation was dissolved in 0.2 ml of TE buffer (10 mM Tris-HCl of pH 8.0 and 1 mM EDTA), then 2 μl of 10% SDS and 4 μl of 10 mg/ml proteinase K (manufactured by Takara Shuzo) were added thereto and the mixture was kept at 37° C. for one hours. This was extracted with a mixture of equal amounts of phenol and chloroform twice, 20 μl of 3M sodium acetate and 400 μl of ethanol were added to the aqueous layer, the mixture was centrifuged and the precipitate was dissolved in 50 μl of the TE buffer to give a DNA solution. […]

## O=C1C=CC(O)C1O (stereo not shown) [cyclopentenone, 4,5-dihydroxy-2-cyclopenten-1-one]
[1]
  concentration at which the ability for inducing HSP70 becomes maximum: 20 to 30 µM
  concentration at which the ability for inducing HSP70 is noted: 10 µM
[1]; 10 μM
  Induction of Heat Shock Proteins: +
[1]; 20 μM
  Induction of Heat Shock Proteins: +++
[1]; 30 μM
  Induction of Heat Shock Proteins: +++
[1]; 40 μM
  Induction of Heat Shock Proteins: ++
[1]; 50 μM
  Induction of Heat Shock Proteins: +
[1]; 100 μM
  Induction of Heat Shock Proteins: ±
[1]; compared in molar concentration
  ability inducing the HSP70 compared with prostaglandin A1: equivalent
NIH3T3/E7-2
  sensitivity of the cells into which E7 was introduced compared with the control cells: high sensitivity
NIH3T3/E7-2; nine days, NIH3T3/E7-2, three runs
  Numbers (average ± SD) of the Colonies: 22.3 ± 3.5
CEM-SS cells
  survival rate of the cells: no significant decrease
Ad5 dlX [an adenovirus] [2]
  amount of the hexon protein compared with the control: apparently decreased
H9 cells
  survival rate of the cells: no significant decrease
NIH3T3 cells
  Numbers (average ± SD) of the Colonies: 85.3 ± 4.0
Ad5 dlX [an adenovirus] [3]
  amount of viral DNA compared with the control: apparent decrease
